Measured values reported in patent US20230217926A1, “SELECTIVE HERBICIDES BASED ON SUBSTITUTED ISOXAZOLIN CARBOXAMIDES AND ISOXADIFEN-ETHYL” (BAYER AKTIENGESELLSCHAFT, priority 2020, published 2023).

Assays:
ZEAMA Sileno [1] = assay: Tank-mix post-emergence crop damage, greenhouse, visual assessment; assay type: in vivo, maize; parameters: key to Reduction [Difference]: % points: herbicide damage without safener − damage with safener; details: for HER effect + SAF / Reduction [%] / Reduction [Difference]: Final; for HER effect: no safener, Final assessment
Protocol: Seeds of crops (spring wheat, TRZAS; spring barley, HORVS; maize, ZEAMA) were placed in sandy loam soil in peat pots, covered with soil and cultivated in a greenhouse under good growth conditions. Two to three weeks after sowing, the test plants were treated at the 1 to 3-leaf stage. The herbicide/safener active compound combinations according to the invention, formulated as wettable powders or emulsion concentrates, and, in parallel tests, the correspondingly formulated individual active compounds were sprayed onto the green parts of the plants in various dosages using an amount of water of 300 l/ha (converted).
The pots were returned under good growing conditions in a glasshouse and a visual assessment of herbicidal effects was made at intervals from 1 to 3 weeks after herbicide application (DAT=days after treatment). Assessment was on a percentage basis in comparison with untreated control plants (0%=no injury, 100%=complete kill).
Reduction[Difference]=herbicide damage without safener−herbicide damage with safener Reduction[%]=(Reduction[Difference]*100)/herbicide damage without safener
a) Plant Species, Variety: ZEAMA Sileno, Safener (SAF): Isoxadifen-Ethyl

TRZAS Triso = assay: Safener seed treatment, pre-emergence herbicide, crop damage; assay type: in vivo, spring wheat; parameters: key to Reduction [Difference]: % crop damage without safener minus % damage with safener; details: HER 15 g a.i./ha pre-emergence; for Reduction [%] / Reduction [Difference]: isoxadifen-ethyl 0.25 g a.i./kg seed; for HER effect + SAF: isoxadifen-ethyl seed treatment 0.25 g a.i./kg seed; for HER effect: no safener
Protocol: (§1) For the safener seed treatment, sufficient seeds of the respective crops (spring wheat, TRZAS; spring barley, HORVS; maize, ZEAMA) were weighed into screw top glass bottles approximately twice the volume of the seeds.
(§2) The specified safeners, formulated as wettable powder (WP) were weighed out so that the specified rates (g a.i./kg seed) would be obtained, dissolved in water (1 ml water per 10 g of seeds), and added to the seeds to produce a slurry.
(§3) The bottles were capped and then placed in an overhead shaker (set at medium speed for ca. 60 minutes) so that the seeds were evenly coated with the slurry. The bottles were uncapped and the seeds were either placed on paper and dried for an interval of 3-4 hours prior to sowing, or directly sown. Seeds were placed in sandy loam soil in pots of a diameter of 7-8 cm, and covered with soil.
(§4) Pre-emergence application of the specified herbicides was done subsequently, on two sets of plants: a) seed treatment with safener, as described above
(§5) The herbicides were formulated as WP and was sprayed onto the soil surface as an aqueous suspension at an equivalent water application rate of 300 l/ha.
(§6) After application, the test plants were kept in the greenhouse under good growth conditions. At intervals up to 4 weeks after application (=28 days after treatment; DAT), % crop damage observed on the treated plants was scored visually in comparison to control plants that had not received any safener or herbicide treatment.
(§7) Values in the table below are mean values of at least 2 replicates.
Reduction[Difference]=herbicide damage without safener−herbicide damage with safener Reduction[%]=(Reduction[Difference]*100)/herbicide damage without safener a) Plant Species, Variety: TRZAS Triso, Safener (SAF): Isoxadifen-Ethyl

ZEAMA Sileno [2] = assay: as above; assay type: in vivo, maize; parameters: key to Reduction [Difference]: % crop damage without safener minus % damage with safener; details: for Reduction [%] / Reduction [Difference]: isoxadifen-ethyl 0.25 g a.i./kg seed; for HER effect + SAF: isoxadifen-ethyl seed treatment 0.25 g a.i./kg seed; for HER effect: no safener
Protocol: as §1, §2, §3, §4, §5, §6, §7
Reduction[Difference]=herbicide damage without safener−herbicide damage with safener Reduction[%]=(Reduction[Difference]*100)/herbicide damage without safener […]
c) Plant Species, Variety: ZEAMA Sileno, Safener (SAF): Isoxadifen-Ethyl

HORVS Montoya = assay: as above; assay type: in vivo, spring barley; parameters: key to Reduction [Difference]: % crop damage without safener minus % damage with safener; details: for Reduction [%] / Reduction [Difference]: isoxadifen-ethyl 0.25 g a.i./kg seed; for HER effect + SAF: isoxadifen-ethyl seed treatment 0.25 g a.i./kg seed; for HER effect: no safener
Protocol: as §1, §2, §3, §4, §5, §6, §7
Reduction[Difference]=herbicide damage without safener−herbicide damage with safener Reduction[%]=(Reduction[Difference]*100)/herbicide damage without safener b) Plant Species, Variety: HORVS Montoya, Safener (SAF): Isoxadifen-Ethyl

[3] = HER 8 g a.i./ha + isoxadifen-ethyl 50 g a.i./ha
[4] = HER 8 g a.i./ha, isoxadifen-ethyl 50 g a.i./ha
[5] = HER 32 g a.i./ha + isoxadifen-ethyl 100 g a.i./ha
[6] = HER 32 g a.i./ha, isoxadifen-ethyl 100 g a.i./ha
[7] = HER 80 g a.i./ha pre-emergence, 14 DAT
[8] = HER 80 g a.i./ha pre-emergence, 26 DAT
[9] = HER 15 g a.i./ha pre-emergence, 11 DAT (Interim)
[10] = HER 15 g a.i./ha pre-emergence, 21 DAT (Final)
[11] = HER 5 g a.i./ha pre-emergence, 21 DAT (Final)
[12] = HER 40 g a.i./ha pre-emergence, 14 DAT

| SMILES | HER effect + SAF (ZEAMA Sileno [1]; [3]) [%] | Reduction [%] (ZEAMA Sileno [1]; [4]) | Reduction [Difference] (ZEAMA Sileno [1]; [4]) | HER effect (ZEAMA Sileno [1]; HER 8 g a.i./ha) [%] | HER effect + SAF (ZEAMA Sileno [1]; [5]) [%] | Reduction [%] (ZEAMA Sileno [1]; [6]) | Reduction [Difference] (ZEAMA Sileno [1]; [6]) | HER effect (ZEAMA Sileno [1]; HER 32 g a.i./ha) [%] | Reduction [%] (TRZAS Triso; 11 DAT (Interim)) | Reduction [Difference] (TRZAS Triso; 11 DAT (Interim)) | HER effect + SAF (TRZAS Triso; 11 DAT (Interim)) [%] | HER effect (TRZAS Triso; 11 DAT (Interim)) [%] | Reduction [%] (HORVS Montoya; [9]) | Reduction [Difference] (HORVS Montoya; [9]) | Reduction [%] (HORVS Montoya; [10]) | Reduction [Difference] (HORVS Montoya; [10]) | HER effect + SAF (HORVS Montoya; [9]) [%] | HER effect + SAF (HORVS Montoya; [10]) [%] | HER effect (HORVS Montoya; [9]) [%] | HER effect (HORVS Montoya; [10]) [%] | further results |
| --- | --- | --- | --- | --- | --- | --- | --- | --- | --- | --- | --- | --- | --- | --- | --- | --- | --- | --- | --- | --- | --- |
| COCCOC(=O)C1C=CC(NC(=O)C2(C)CC(c3cc(Cl)cc(C#N)c3)=NO2)C1 (stereo not shown) [Example 1.5] | 18 | 79 | 67 | 85 | 47 | 51 | 49 | 96 | 80 | 20 | 5 | 25 | – | – | – | – | – | – | – | – | Reduction [%] (ZEAMA Sileno [2]; [7]): 50%; Reduction [Difference] (ZEAMA Sileno [2]; [7]): 30; Reduction [%] (ZEAMA Sileno [2]; [8]): 56%; Reduction [Difference] (ZEAMA Sileno [2]; [8]): 25; HER effect + SAF (ZEAMA Sileno [2]; [7]): 30%; HER effect + SAF (ZEAMA Sileno [2]; [8]): 20%; HER effect (ZEAMA Sileno [2]; [7]): 60%; HER effect (ZEAMA Sileno [2]; [8]): 45% |
| CSCCOC(=O)C1C=CC(NC(=O)C2(C(F)(F)F)CC(c3cc(F)cc(F)c3)=NO2)C1 (stereo not shown) [Example 1.7] | – | – | – | – | – | – | – | – | 56 | 25 | 20 | 45 | 50 | 25 | 83 | 25 | 25 | 5 | 50 | 30 | – |
| CC1(C(=O)NC2C=CC(C(=O)O)C2)CC(c2cc(F)cc(F)c2)=NO1 (stereo not shown) [Example 1.36] | – | – | – | – | – | – | – | – | 29 | 20 | 50 | 70 | – | – | 43 | 30 | – | 40 | – | 70 | Reduction [%] (TRZAS Triso; 21 DAT (Final)): 64%; Reduction [Difference] (TRZAS Triso; 21 DAT (Final)): 45; HER effect + SAF (TRZAS Triso; 21 DAT (Final)): 25%; HER effect (TRZAS Triso; 21 DAT (Final)): 70%; Reduction [%] (HORVS Montoya; [11]): 44%; Reduction [Difference] (HORVS Montoya; [11]): 20; HER effect + SAF (HORVS Montoya; [11]): 25%; HER effect (HORVS Montoya; [11]): 45% |
| C=CC1(C(=O)NC2C=C(C(=O)OCC#N)OC2)CC(c2cc(F)cc(F)c2)=NO1 (stereo not shown) [Example 1.91] | – | – | – | – | – | – | – | – | – | – | – | – | – | – | – | – | – | – | – | – | Reduction [%] (TRZAS Triso; 21 DAT (Final)): 75%; Reduction [Difference] (TRZAS Triso; 21 DAT (Final)): 30; HER effect + SAF (TRZAS Triso; 21 DAT (Final)): 10%; HER effect (TRZAS Triso; 21 DAT (Final)): 40% |
| COC(=O)C1C=CC(NC(=O)C2(C(F)(F)F)CC(c3cccc(F)c3)=NO2)C1 (stereo not shown) [Example 1.18] | 25 | 73 | 69 | 94 | 20 | 79 | 77 | 97 | 67 | 30 | 15 | 45 | 50 | 20 | 88 | 35 | 20 | 5 | 40 | 40 | Reduction [%] (ZEAMA Sileno [2]; [12]): 63%; Reduction [Difference] (ZEAMA Sileno [2]; [12]): 25; HER effect + SAF (ZEAMA Sileno [2]; [12]): 15%; HER effect (ZEAMA Sileno [2]; [12]): 40% |
